Several values for one entry are separate records, joined by “and”; a condition that tells them apart may be missing. Equal values may be shown once. *1 amine or outer side, *2 acyl side, *3 side chain or, on linkers, in order; H or OH if unused. Where a SMILES comes first, the peptide text is derived from it. The star is where a group is joined. γGlu = O=C(O)[CH](CCC(=O)[*:2])N[*:1]; NHOH = ON*

In experiment [1] the test system is SNB-75. Nature of the experiment: Antitumor activity was evaluated for reduction of growth of SNB-75 cancer cells at a concentration of 100 uM. Type of experiment: functional, Homo sapiens.
The test system of experiment [2] is Plasmodium falciparum. Kind of experiment: Antimalarial activity against Plasmodium falciparum W2 Indochina; moderate activity. Type of experiment: functional, organism-based.
Experiment [3] deals with Plasmodium falciparum. Kind of experiment: Antimalarial activity against Plasmodium falciparum D6 (Sierra Leone); moderate activity. Type of experiment: functional, organism-based.
A further experiment deals with A498. Nature of the experiment: Antitumor activity was evaluated for reduction of growth of renal cancer (A498) cells at a concentration of 100 uM. Type of experiment: functional, Homo sapiens.
The subject of experiment [4] is SNB-75. Kind of experiment: Antitumor activity was evaluated for reduction of growth of CNS cancer (SNB-75)cells at a concentration of 100 uM. Type of experiment: functional, Homo sapiens.
Experiment [5] is described as follows: Antitumor activity was evaluated for reduction of growth of non-small cell lung (NCL-H522) cancer cells at a concentration of 100 uM. Type of experiment: functional, Homo sapiens, Cancer cell lines.
Another experiment concerns HL-60. Kind of experiment: Antitumor activity was evaluated for reduction of growth of leukemia(HL-60 (TB)) cancer cells at a concentration of 100 uM. Type of experiment: functional, Homo sapiens.

Turning to `CN(O)C(=O)CCC(NC(=O)CCC(N)C(=O)O)C(=O)NCC(=O)O` (stereo not given), the Reduction in the experiment with SNB-75 [1] is given as 40%. The Activity entry in the experiment on Plasmodium falciparum [2] and in the experiment with Plasmodium falciparum [3] was “Poor or moderate activity” in each case.

The molecule `CCOC(=O)CNC(=O)C(CCC(=O)NO)NC(=O)CCC(N)C(=O)O` (stereo not given) (γGlu-Glu(NHOH)-Gly-OEt; configuration not given here) yielded a Reduction with A498 of 31%.

For the molecule `NC(CCC(=O)NC(CCC(=O)NO)C(=O)NCC(=O)O)C(=O)O` (stereo not given) (γGlu-Glu(NHOH)-Gly-OH; configuration not given here), the Reduction in the experiment with A498 was 34% and 31%; in the experiment with SNB-75 [4] it was 31%; in experiment [5], 38%; in the experiment with HL-60, 46%. For the same molecule, the Activity entry in the experiment on Plasmodium falciparum [2] and in the experiment on Plasmodium falciparum [3] was “Poor or moderate activity” in each case.

These data come from ChEMBL document CHEMBL1131657, “Syntheses and kinetic evaluation of hydroxamate-based peptide inhibitors of glyoxalase I” (Bioorg Med Chem Lett, 1998).
